Source: US9487513B2, “Substituted pyrazolo[1,5-A]pyridines, their preparation and use as medicaments” (LABORATORIOS DEL DR. ESTEVE S.A., priority 2012, dated 2016)
Counter-ions that a name gives are not always drawn.

Biological target: T1, σ1-receptor (Cavia porcellus, UniProt Q60492)
T1 construct: Guinea pig brains were homogenized in 10 vols; (w/v) of Tris-HCl 50 mM 0.32 M sucrose; from tissue; host or cells: guinea pig brain membranes
Test: σ1-receptor binding assay, [3H]-(+)-pentazocine, guinea pig brain membranes
Details: radioligand [3H]-(+)-pentazocine at 5.0 nM; guinea pig brain membrane; 150 min at 37° C.; nonspecific binding with 1 μM haloperidol
Experimental: Brain membrane preparation and binding assays for the σ1-receptor were performed as described (DeHaven-Hudkins, D. L., L. C. Fleissner, and F. Y. Ford-Rice, 1992, Characterization of the binding of [^3H](+)pentazocine to σ recognition sites in guinea pig brain, Eur. J. Pharmacol. 227, 371-378) with some modifications. Guinea pig brains were homogenized in 10 vols. (w/v) of Tris-HCl 50 mM 0.32 M sucrose, pH 7.4, with a Kinematica Polytron PT 3000 at 15000 r.p.m. for 30 s. The homogenate was centrifuged at 1000 g for 10 min at 4° C. and the supernatants collected and centrifuged again at 48000 g for 15 min at 4° C. The pellet was resuspended in 10 volumes of Tris-HCl buffer (50 mM, pH 7.4), incubated at 37° C. for 30 min, and centrifuged at 48000 g for 20 min at 4° C. Following this, the pellet was re-suspended in fresh Tris-HCl buffer (50 mM, pH 7.4) and stored on ice until use.
The radioligand used was [^3H]-(+)-pentazocine at 5.0 nM and the final volume was 200 μl. The incubation was initiated with the addition of 100 μl of membrane at a final tissue concentration of approximately 5 mg tissue net weight/mL and the incubation time was 150 m. at 37° C. After incubation, the membranes were collected onto pretreated glass fiber filterplate (MultiScreen-FC, Millipore), with polyethylenimine 0.1%. The filters were washed two times with 200 μl of washing buffer (50 mM Tris Cl, pH=7.4) and then 25 μl of Ecoscint H liquid scintillation cocktail were added. Microplates were allowed to set for several hours and then quantified by liquid scintillation spectrophotometry (1450 Microbeta, Wallac). Nonspecific binding was determined with 1 μM haloperidol.

T1 sequence (Q60492 whole entry): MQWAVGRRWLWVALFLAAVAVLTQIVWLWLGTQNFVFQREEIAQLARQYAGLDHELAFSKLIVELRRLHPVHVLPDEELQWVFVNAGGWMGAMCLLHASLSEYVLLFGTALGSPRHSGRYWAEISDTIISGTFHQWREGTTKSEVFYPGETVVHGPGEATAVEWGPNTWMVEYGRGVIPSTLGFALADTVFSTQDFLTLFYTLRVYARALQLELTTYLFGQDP

Compared with `CCCN(CCOc1cc2n(n1)CCCC2)CC1CC1` [Example 90, N-(cyclopropylmethyl)-N-(2-(4,5,6,7-tetrahydropyrazolo[1,5-a]pyridin-2-yloxy)ethyl)propan-1-amine maleate], `CCN1CCN(CCCCOc2cc3n(n2)CCCC3)CC1` [Example 98, 2-(4-(4-ethylpiperazin-1-yl)butoxy)-4,5,6,7-tetrahydropyrazolo[1,5-a]pyridine maleate] is 4.8-fold higher in Ki: 28.5 nM for the first, 138 nM for the second. The first binds more tightly here.

`CC(C)N1CCN(CCOc2cc3n(n2)CCCC3)CC1` [Example 91, 2-(2-(4-isopropylpiperazin-1-yl)ethoxy)-4,5,6,7-tetrahydropyrazolo[1,5-a]pyridine maleate] and `CC(C)N1CCN(CCCCOc2cc3n(n2)CCCC3)CC1` [Example 92, 2-(4-(4-isopropylpiperazin-1-yl)butoxy)-4,5,6,7-tetrahydropyrazolo[1,5-a]pyridine maleate] are within 1.5-fold of each other in Ki: 195 nM for the first, 182 nM for the second.

`CN1CCN(CCCCOc2cc3n(n2)CCCC3)CC1` [Example 93, 2-(4-(4-methylpiperazin-1-yl)butoxy)-4,5,6,7-tetrahydropyrazolo[1,5-a]pyridine maleate] and `CN1CCCN(CCCCOc2cc3n(n2)CCCC3)CC1` [Example 96, 2-(4-(4-methyl-1,4-diazepan-1-yl)butoxy)-4,5,6,7-tetrahydropyrazolo[1,5-a]pyridine maleate] are within 1.5-fold of each other in Ki: 167 nM for the first, 180 nM for the second.

Compared with `c1c(OCCCN2CCCCC2)nn2c1CCCC2` [Example 99, 2-(3-(piperidin-1-yl)propoxy)-4,5,6,7-tetrahydropyrazolo[1,5-a]pyridine maleate], `c1c(OCCCN2CCCOCC2)nn2c1CCCC2` [Example 101, 4-(3-(4,5,6,7-tetrahydropyrazolo[1,5-a]pyridin-2-yloxy)propyl)-1,4-oxazepane] is 2-fold lower in Ki: 97.2 nM for the first, 48.1 nM for the second. The second binds more tightly here.

Compared with `c1c(OCCCN2CCN(C3CCCCC3)CC2)nn2c1CCCC2` [Example 100, 2-(3-(4-cyclohexylpiperazin-1-yl)propoxy)-4,5,6,7-tetrahydropyrazolo[1,5-a]pyridine maleate], `Clc1c(OCCCCN2CCN(C3CCCCC3)CC2)nn2c1CCCC2` [Example 108, 3-chloro-2-(4-(4-cyclohexylpiperazin-1-yl)butoxy)-4,5,6,7-tetrahydropyrazolo[1,5-a]pyridine] is 3.3-fold lower in Ki: 37.1 nM for the first, 11.4 nM for the second. The second binds more tightly here.

First: CC(C)(C)C1CCN(CCCCOc2nn3c(c2Cl)CCCC3)CC1 [Example 105, 2-(4-(4-tert-butylpiperidin-1-yl)butoxy)-3-chloro-4,5,6,7-tetrahydropyrazolo[1,5-a]pyridine maleate]
Second: CN(CCOc1nn2c(c1I)CCCC2)Cc1ccccc1 [Example 107, N-benzyl-2-(3-iodo-4,5,6,7-tetrahydropyrazolo[1,5-a]pyridin-2-yloxy)-N-methylethanamine oxalate]
The Ki of the first is 4.5-fold higher: 13.3 nM for the first, 2.95 nM for the second. The second binds more tightly here.

For `CN(CCOc1nn2ccccc2c1I)Cc1ccccc1` [Example 106, N-benzyl-2-(3-iodopyrazolo[1,5-a]pyridin-2-yloxy)-N-methylethanamine oxalate], the Ki was 5.8 nM.
